The nature of test [1]: Effect of Wnt/beta-Catenin signaling pathway in human SW480 cells assessed as reduction in Axin2 level at 10 uM incubated for 24 hrs by qRT-PCR analysis relative to control. The class given is functional. Particulars: SW480, 24 h.
Test [2] can be described thus: Effect of Wnt/beta-Catenin signaling pathway in human SW480 cells assessed as reduction in BCL9L level at 10 uM incubated for 24 hrs by qRT-PCR analysis relative to control. It is filed as functional. The settings on record: SW480, 24 h. On the technique in general: In qPCR the cycle at which signal appears reflects the starting amount.
The target in test [3] is beta-catenin-B-cell lymphoma 9 protein complex (Homo sapiens) (UniProt P35222+O00512). Put plainly: Disruption of beta-catenin/N-terminal biotinylated human BCL9 HD2 (350 to 375 residues) protein-protein interaction in human SW480 cells incubated for 1 hr followed by N-terminal biotinylated human BCL9 HD2 addition and measured after 2 hrs by immunoblot based pull-down assay. The class given is cell-based. Particulars: time 3.0 hrs, DDE = dose-dependent effect. On the technique in general: A western blot detects proteins with antibodies after separation by electrophoresis.

Test [4] deals with T1, beta-catenin-B-cell lymphoma 9 protein complex (Homo sapiens, UniProt P35222).
T1 sequence (P35222 whole entry): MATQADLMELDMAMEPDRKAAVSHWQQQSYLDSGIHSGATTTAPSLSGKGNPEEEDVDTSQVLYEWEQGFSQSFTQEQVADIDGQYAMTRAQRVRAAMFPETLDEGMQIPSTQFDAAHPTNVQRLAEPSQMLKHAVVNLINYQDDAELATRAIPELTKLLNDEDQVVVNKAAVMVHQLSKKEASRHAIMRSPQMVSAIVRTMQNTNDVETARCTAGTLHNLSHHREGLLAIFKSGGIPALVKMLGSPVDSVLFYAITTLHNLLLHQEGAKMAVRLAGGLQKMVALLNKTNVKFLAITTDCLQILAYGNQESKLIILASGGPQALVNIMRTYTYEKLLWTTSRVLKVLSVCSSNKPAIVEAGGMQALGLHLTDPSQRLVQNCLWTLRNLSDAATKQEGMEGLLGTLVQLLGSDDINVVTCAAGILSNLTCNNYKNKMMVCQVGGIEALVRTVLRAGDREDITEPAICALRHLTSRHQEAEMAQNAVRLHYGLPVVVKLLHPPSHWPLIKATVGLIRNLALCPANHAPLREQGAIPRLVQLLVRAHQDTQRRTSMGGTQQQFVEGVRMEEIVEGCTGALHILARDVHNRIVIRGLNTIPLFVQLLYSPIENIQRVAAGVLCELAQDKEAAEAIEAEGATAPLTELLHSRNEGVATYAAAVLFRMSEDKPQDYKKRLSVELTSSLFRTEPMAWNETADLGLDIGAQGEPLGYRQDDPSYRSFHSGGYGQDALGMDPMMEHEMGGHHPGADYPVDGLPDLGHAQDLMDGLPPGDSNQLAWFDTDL
T1 sequence (O00512 whole entry): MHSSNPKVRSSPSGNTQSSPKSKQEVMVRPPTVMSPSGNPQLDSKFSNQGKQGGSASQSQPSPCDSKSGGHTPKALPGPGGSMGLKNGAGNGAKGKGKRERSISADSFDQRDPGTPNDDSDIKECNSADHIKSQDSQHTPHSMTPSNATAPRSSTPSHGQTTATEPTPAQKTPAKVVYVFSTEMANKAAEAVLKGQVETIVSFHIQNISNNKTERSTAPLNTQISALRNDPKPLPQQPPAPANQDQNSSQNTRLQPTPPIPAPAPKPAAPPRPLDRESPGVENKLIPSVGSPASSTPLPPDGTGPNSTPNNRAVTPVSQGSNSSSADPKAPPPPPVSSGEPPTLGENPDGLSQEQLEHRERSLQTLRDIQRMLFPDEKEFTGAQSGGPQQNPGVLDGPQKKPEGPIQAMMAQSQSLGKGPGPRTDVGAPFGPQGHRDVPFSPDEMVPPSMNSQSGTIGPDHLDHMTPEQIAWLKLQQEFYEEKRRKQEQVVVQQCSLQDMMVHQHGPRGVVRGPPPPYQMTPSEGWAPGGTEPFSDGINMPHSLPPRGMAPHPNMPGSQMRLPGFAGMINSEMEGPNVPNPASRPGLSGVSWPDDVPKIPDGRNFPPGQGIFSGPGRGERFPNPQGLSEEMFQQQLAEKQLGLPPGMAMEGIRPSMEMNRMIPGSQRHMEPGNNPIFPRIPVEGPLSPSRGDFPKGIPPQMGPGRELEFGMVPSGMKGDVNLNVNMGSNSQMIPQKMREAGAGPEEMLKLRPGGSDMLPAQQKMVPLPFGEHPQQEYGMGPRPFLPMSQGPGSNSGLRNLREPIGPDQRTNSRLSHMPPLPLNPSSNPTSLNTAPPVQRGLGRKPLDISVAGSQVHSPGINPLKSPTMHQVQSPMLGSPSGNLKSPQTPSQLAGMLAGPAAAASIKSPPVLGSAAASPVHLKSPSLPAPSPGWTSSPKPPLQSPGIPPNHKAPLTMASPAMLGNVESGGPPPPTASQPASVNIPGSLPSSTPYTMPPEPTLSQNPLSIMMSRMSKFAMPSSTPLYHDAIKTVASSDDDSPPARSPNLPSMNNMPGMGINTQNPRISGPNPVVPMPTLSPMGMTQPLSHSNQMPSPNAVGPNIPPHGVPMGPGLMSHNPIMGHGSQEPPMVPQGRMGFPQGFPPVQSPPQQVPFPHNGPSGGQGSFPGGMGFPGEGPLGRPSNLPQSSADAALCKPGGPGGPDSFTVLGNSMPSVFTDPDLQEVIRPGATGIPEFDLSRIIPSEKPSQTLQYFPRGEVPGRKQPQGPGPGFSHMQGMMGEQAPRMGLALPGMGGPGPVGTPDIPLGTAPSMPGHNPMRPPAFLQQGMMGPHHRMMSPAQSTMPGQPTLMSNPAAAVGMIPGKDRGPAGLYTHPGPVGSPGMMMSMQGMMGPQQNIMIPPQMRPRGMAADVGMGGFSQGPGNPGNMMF
Kind of test: Inhibition of full length beta-catenin (1 to 781 residues) (unknown origin) expressed in Escherichia coli BL21 (DE3)-N-terminal biotinylated human BCL9 (350 to 375 residues) protein-protein interaction incubated for 1 hr by Alphascreen assay. Background: In Alpha technology, singlet oxygen from a donor bead excites a nearby acceptor bead.

As for `CC(C)(Oc1cccc(N2CCC[C@@H](C(=O)N(Cc3ccc(-c4cnc5[nH]ccc5c4)cc3)C3CC3)C2)c1)C(=O)N1CCNCC1.Cl`, the level, % of control at 10 µM in test [1] was determined as 56%. For the same compound, the level, % of control at 10 µM in test [2] came out at 52%. Besides, the inhibition result in test [3] was “Dde”. In test [4], this compound came in with an IC50 of 3.4 µM and a Ki of 2.7 µM.

A word on the IC50: it is the concentration needed to halve the response being measured. Read a low IC50 as greater potency. The term Ki denotes the dissociation constant of the complex between target and ligand, obtained from inhibition or displacement.

Source of the values: ChEMBL document CHEMBL5154919, “New ZW4864 Derivatives as Small-Molecule Inhibitors for the β-Catenin/BCL9 Protein-Protein Interaction” (ACS Med Chem Lett, 2022).
